Data set [1] concerns stable flies. The data set can be described thus: stable fly laboratory repellent bioassay (blood-feeding). To be noted: for repellency of C8 to C18 acids: FIG. 3. The format is in vivo, Stomoxys calcitran.
Data set [2] concerns stable flies. To be noted: for knock-down times: 20 mg and 10 mg doses; for knock-down: lowest dose, 2 mg.
Data set [3] concerns stable flies. The data set can be described thus: stable fly laboratory repellent bioassay (blood-feeding). The format is in vivo, Stomoxys calcitran. The procedure:
Comparisons of coconut oil, coconut FFA, and lauric acid against stable fly blood-feeding: Using our modified stable fly laboratory repellent bioassay, we tested coconut oil, coconut FFA and its major compositional compound, lauric acid, for their repellency against stable flies.
In FIG. 11, repellent activity tests were conducted under the laboratory conditions (22° C., 50% RH), 48-hr starved stable flies were used, and a total of at least 5 replicates were accumulated.

Data set [4] deals with ticks. Put plainly: tick repellency (species not stated). The format is in vivo. As to conditions: at 1.25%.
The test system of data set [5] is horn flies. Put plainly: mortality of horn flies after exposure. The format is in vivo. From the text:
The present invention discloses a blood-sucking insects and biting insects (e.g., stable flies, horn flies, ticks and mites repellent compounds (e.g., lauric acid), identified from coconut oil that is listed as a GRAS (Generally Recognized as Safe, http://www.fda.gov/Food/IngredientsPackagingLabeling/GRAS/) substance. Coconut oil is an edible oil extracted from the kernel or meat of mature coconuts harvested from the coconut palm (https://en.wikipedia.org/wiki/Coconut_oil). It contains a high level of low molecular weight saturated fatty acids (Gervajio, G. C., Fatty acids and derivatives from coconut oil, IN: Bailey's Industrial Oil and Fat Products, Sixth Edition, Six Volume Set, Fereidoon Shahidi, Ed., 2005, John Wiley & Sons, Inc.). […] Both have over 2-weeks longevity deterring stable fly feeding (>90% repellency). […] This compound is listed as one of CFR 21 products that is permitted for direct addition to food for human consumption by FDA (Code of Federal Regulations, Title 21). […]

In data set [6] the test system is horn flies. The data set can be described thus: horn fly blood-feeding repellency. The format is in vivo, Haematobia irritans. As to the method: Comparisons of coconut FFA, methyl laurate, and lauric acid against horn fly blood-feeding: We also tested coconut FFA and its major compositional compound, lauric acid, for their repellency against horn flies. […] F=41.5 P<0.0001). Dose response curves of repellency against horn flies from coconut FFA and lauric acid: […] F=4.08-4.38 P<0.05). […] A 50% repellency was shown when the dose was reduced to 2 mg. No significant differences in the least repellency concentrations were found among the two repellent candidates, with average 7 mg of both coconut FFA and lauric acid was needed.

Data set [7] deals with Aedes aegypti. Put plainly: arm-in-cage assay, biting protection. The format is in vivo. As to conditions: 1st hour, N = 3.
For data set [8], the system named is Aedes aegypti. The data set can be described thus: minimum effective dosage for biting protection. The format is in vivo. To be noted: N = 3-5.
The subject of data set [9] is bed bugs. Put plainly: bed bug petri-dish repellency assay. The format is in vivo, Cimex letularius. The text has this:
(§1) Bed bugs chose to rest on control tents (hexane-treated) when given a choice of coconut FFA-treated tent (FIG. 9C). This effect lasted on tents treated 14 d earlier.

Data set [10] relates to bed bugs. Put plainly: bed bug choice among treated tents (harborages). The format is in vivo, Cimex letularius. To be noted: control (hexane) vs treated tent.
Excerpt: as §1

Where two headings read alike, the source gives them in different places. Marks after values point to notes of the source that are not given here.

As for `CCCCCCCC(=O)O` [C8 acid, Caprylic acid], in [1] (dose not stated), the “repellency of C8 to C18 acids” value was greater than 80%.
Take `CCCCCCCCCC(=O)OC` [C10 Me, Methyl decanoate]: in [2], the “knock-down times” value is recorded as “significantly shorter knock-down times”. Further, the mortality (in general, the percentage killed) in data set [2] (in vivo) is listed as roughly 100%. Further, in data set [2] (stable flies), the knock-down time result is “less than 3 mins” and the “toxic effect” value is recorded as “most active toxicant”. Further, the “time to mortality after exposure” value in [2] (stable flies, listed as 10 Me ester) was in the range of 10 to 15 min. Moreover, in [2] (stable flies, listed as C10 methyl ester), the “time to mortality after exposure” value was less than 10 min. Also, the “repellency against stable flies” value in [3] (20 mg dosage) came out at 100%.
On to `CCCCCCCCCCCC(=O)OC` [methyl laurate], for which the knock-down entry in data set [2] is “no knock-down”. Besides, in [2] (stable flies), the “mean LD” value fell in the range of 11 to 20 min, the “time to mortality after exposure” value lay within 15 to 20 min and the “toxic effect” value is “least toxic compound”. This compound also showed a mortality in data set [2] (stable flies after exposure) of 100%. This compound also yielded a repellency against ticks in data set [4] of 100%. The “repellency against stable flies” value in data set [1] (20 mg dosage, listed as C12 Me) worked out at 100%. Moreover, the “repellency of methyl esters” value in [1] (initial bioassays, dose not stated) is listed as roughly 100%. In addition, in data set [5] (horn flies), the “time to mortality after exposure” value fell in the range of 15 to 20 min. Also, the mortality in data set [5] (horn flies after exposure) amounted to 100%.
For the compound `CCCCCCCC/C=C\CCCCCCCC(=O)OC` [methyl oleate], in [3] (20 mg dosage), the “repellency against stable flies” value is “did not showed significant repellency”.
As for `CCCCCCCC(=O)OC` [C8 Me, Methyl octanoate], in [2], the “knock-down times” value is reported as “significantly shorter knock-down times” and the knock-down entry was “no knock-down”. Also, in data set [3] (2 mg dose), the “repellency against stable flies” value is given as “strongest repellency”. For the same compound, the “repellency against stable flies” value in [3] (20 mg dosage) is 100%.
Regarding `CCCCCCCCCCC(=O)O` [C11], the “repellency of C8 to C18 acids” value in data set [1] (dose not stated) is listed as “strongest repellency”.
As to `CCCCCCCCC(=O)O` [C9], the “repellency of C8 to C18 acids” value in [1] (dose not stated) was “strongest repellency”.
On to `CCCCCCCCCCCCC(=O)O` [C13], for which the “repellency of C8 to C18 acids” value in data set [1] (dose not stated) is given as “strongest repellency”.
Consider `CCCCCCCCCCCC(=O)O` [lauric acid], for which, in data set [2] (stable flies), the “toxic effect” value is recorded as “no toxic effect”. In addition, the “repellency against stable flies” value in data set [3] (2 mg dose) is given as “No repellency”. Further, the “LR50 (95% C.I.), least repellency concentration” value in [3] (in vivo) is given as 3.69 (3.23-6.53) mg/24 cm^2. The “LR90 (95%, C.I.), least repellency concentration” value in [3] (in vivo) is on record as 13.61 (9.11-32.59) mg/24 cm^2. In addition, in data set [3] (in vivo), the “average amount needed to achieve 90% repellency” value came out at 13 mg. Also, the “repellency against horn flies” value in data set [6] (2 mg dose) turned out to be 50%. Also, in data set [6] (in vivo), the “least repellency concentration, average amount needed” value is listed as 7 mg. Further, the biting protection is given as 20 ± 0% in data set [7] (6.25%); 20 ± 0% in [7] (12.50%); 73% in data set [7] (25% (0.42 mg/cm^2)); 74 ± 6% in data set [7] (25% (0.42 mg/cm^2), listed as Lauric acid); 60 ± 11% in [7] (50%). In addition, the “repellency in longevity test” value in data set [1] (2-week longevity test (FIG. 5)) is reported as 94%. For the same compound, the results for the “Minimum effective dosage required for biting protection” value in data set [8] and in data set [8] (listed as Lauric acid) were 0.75 mg/cm^2 and 0.750 ± 0.000 mg/cm^2, respectively. Moreover, the effectiveness duration entry in [9] (at 5%) is “up to 24 hours”. In addition, the repellency against bedbugs in data set [9] (at 5%) came to 100%.
Regarding `CCN(CC)C(=O)c1cccc(C)c1` [DEET, N,N-diethyl-m-toluamide, reference compound], the biting protection is on record as 58-88* % in [7] (6.25%), 77-97* % in data set [7] (12.50%) and “≈93* %” in data set [7] (25% (0.42 mg/cm^2)). Besides, in [10], the “choice of control tents over treated tents” value is “no longer significant at 7 d and 14 d”. Also, in data set [8], the “Minimum effective dosage required for biting protection” value is given as 0.047 ± 0.000 mg/cm^2. Besides, the repellency remaining entry in data set [9] (7th day after application (FIG. 9B)) is listed as “below 40%”.

These data come from US20190141999A1, “Methods For Repelling Blood-Sucking And Biting Insects, Ticks And Mites” (The United States of America, as represented by the …, priority 2017, published 2019).
